In patent publication US7045636B2, “MCH antagonists for the treatment of obesity” (Schering Corporation, priority 2001, dated 2006) one finds Ki data, which are given here for 45 compounds.

For the first test, the target named is T1, MCH receptor (Homo sapiens, UniProt Q99705).
T1 construct: expressed in transfected cells; host or cells: CHO cells
T1 sequence (Q99705 whole entry): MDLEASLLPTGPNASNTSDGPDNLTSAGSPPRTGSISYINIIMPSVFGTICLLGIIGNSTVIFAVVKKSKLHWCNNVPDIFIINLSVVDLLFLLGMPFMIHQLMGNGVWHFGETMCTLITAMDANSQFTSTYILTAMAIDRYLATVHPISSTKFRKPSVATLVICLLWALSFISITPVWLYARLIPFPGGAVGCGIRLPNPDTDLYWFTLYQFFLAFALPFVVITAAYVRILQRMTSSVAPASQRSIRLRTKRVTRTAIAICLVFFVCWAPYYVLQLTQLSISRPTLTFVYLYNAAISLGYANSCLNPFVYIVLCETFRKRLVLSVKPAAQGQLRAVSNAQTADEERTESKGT
Put plainly: MCH Receptor Binding Assay. The note with it: Table 1; membranes from CHO cells expressing the MCH receptor, [125I]-MCH, SPA; read-out: MCH Ki (nm). As to the method: MCH Receptor Binding Assay:
Membranes from CHO cells expressing the MCH receptor were prepared by lysing cells with 5 mM HEPES for 15 min at 4C. Cell lysates were centrifuged ([…], 15 min) and the pellet was re-suspended in 5 mM HEPES. For each 96-well plate (Microlite, Dynex Technologies), 1 mg of cell membranes were incubated with 10 mg of wheat germ agglutinin SPA beads (Amersham) for 5 min at 4 C in a volume of 10 ml of binding buffer (25 mM HEPES, 10 mM MGCl2, 10 mM NaCl, 5 mM MnCl2, 0.1% BSA). The membrane/bead mixture was centrifuged (1500×g, 3.5 min), the supernatant was aspirated, and the pellet was re-suspended in 10 ml binding buffer. The centrifugation, aspiration and re-suspension were then repeated. The membrane/bead mixture (100 μl) was then added to 96-well plates containing 50 μl of 500 pM [^125I]-MCH (NEN) and […] of the appropriate concentration of compound (4× the desired final concentration). Nonspecific binding was determined by including 1 μM MCH in the binding reaction. The binding reaction was incubated at room temperature for 2 h. Plates were then analyzed in a TOPCOUNT microplate scintillation counter (Packard). Data was analyzed and Ki values were determined using GraphPad Prim.
One may read the Ki as the dissociation constant of the complex between target and ligand, obtained from inhibition or displacement. As to `N#Cc1cccc(-c2ccc(CCN(CC(=O)Nc3ccc(F)c(Cl)c3)C(=O)CN3CC[C@@H](O)C3)cc2)c1` [Example 3], the Ki stood at 3.7 nM.
Turning to `N#Cc1cccc(-c2ccc(CCN(CC(=O)Nc3ccc(F)c(Cl)c3)C(=O)CN3CCCC3)cc2)c1` [Example 4], the Ki stood at 5.3 nM.
Take `N#Cc1cccc(-c2ccc(CCN(CC(=O)Nc3cc(F)cc(C(F)(F)F)c3)C(=O)CN3CC[C@@H](O)C3)cc2)c1` [Example 5]: the Ki came to 6.7 nM.
For `N#Cc1cccc(-c2ccc(CCN(CC(=O)Nc3cc(Cl)cc(Cl)c3)C(=O)CCN3CC[C@H](O)C3)cc2)c1` [Example 6], the Ki came out at 7.2 nM.
As for `N#Cc1cccc(-c2ccc(CCN(CC(=O)Nc3cc(Cl)cc(Cl)c3)C(=O)CN3CCCCC3)cc2)c1` [Example 7], the Ki is 9.3 nM.
As to `N#Cc1cccc(-c2ccc(CCN(CC(=O)Nc3cc(Cl)cc(Cl)c3)C(=O)CCN3CCCC3)cc2)c1` [Example 9], the Ki is 10 nM.
Same read-out and setting: for `N#Cc1cccc(-c2ccc(CCN(CC(=O)Nc3ccc(Cl)c(C(F)(F)F)c3)C(=O)CN3CC[C@@H](O)C3)cc2)c1` [Example 10] the value was 11 nM.
Turning to `N#Cc1cccc(-c2ccc(CCN(CC(=O)Nc3cc(F)cc(C(F)(F)F)c3)C(=O)CN3CCCC3)cc2)c1` [Example 11], the Ki is 11.7 nM.
With `N#Cc1cccc(-c2ccc(CCN(CC(=O)Nc3cc(Cl)cc(Cl)c3)C(=O)CCN3CC[C@@H](O)C3)cc2)c1` [Example 12], the inhibition constant Ki amounted to 12 nM.
Regarding `N#Cc1cccc(-c2ccc(CN(CC(=O)Nc3cc(Cl)cc(Cl)c3)C(=O)NCCN3CCCC3)cc2)c1` [Example 13], the inhibitory constant (Ki) came to 13 nM.
On to `N#Cc1cccc(-c2ccc(CCN(CC(=O)Nc3cc(Cl)cc(Cl)c3)C(=O)CN3CCCC3)cc2)c1` [Example 15], for which the Ki was determined as 19 nM.
For the compound `CCCNCCC(=O)N(CCc1ccc(-c2cccc(C#N)c2)cc1)CC(=O)Nc1cc(Cl)cc(Cl)c1` [Example 16], the Ki was determined as 24 nM.
Take `N#Cc1cccc(-c2ccc(CCN(CC(=O)Nc3ccc(Cl)c(C(F)(F)F)c3)C(=O)CN3CCCC3)cc2)c1` [Example 17]: the Ki came out at 25 nM.
As for `N#Cc1cccc(-c2ccc(CN(CC(=O)Nc3cc(Cl)cc(Cl)c3)C(=O)CN3CC[C@H](O)C3)cc2)c1` [Example 18], the Ki came to 27 nM.
Still for that read-out and setting: for `N#Cc1cccc(-c2ccc(CCN(CC(=O)Nc3ccc(F)c(C(F)(F)F)c3)C(=O)CN3CCCC3)cc2)c1` [Example 19] the value was 28 nM; for `N#Cc1cccc(-c2ccc(CCN(CC(=O)Nc3cc(Cl)cc(Cl)c3)C(=O)CCN3CCC3)cc2)c1` [Example 20], 32 nM.
In the case of `N#Cc1cccc(-c2ccc(CN(CC(=O)Nc3cc(Cl)cc(Cl)c3)C(=O)CN3CCCC3)cc2)c1` [Example 21], the Ki was determined as 35 nM.
In the case of `CN(C)CC(=O)N(CC(=O)Nc1cc(Cl)cc(Cl)c1)Cc1ccc(-c2cccc(C#N)c2)cc1` [Example 22], the Ki was 36 nM.
Turning to `N#Cc1cccc(-c2ccc(CN(CC(=O)Nc3cc(Cl)cc(Cl)c3)C(=O)C3CN(C4CCCC4)C3)cc2)c1` [Example 24], the inhibition constant (Ki) is 40 nM.
Regarding `CN(C)CC(=O)N(CC(=O)Nc1cc(Cl)cc(Cl)c1)c1ccc(-c2cccc(C#N)c2)cc1` [Example 25], the Ki turned out to be 52 nM.
On to `CC(C(=O)Nc1cc(Cl)cc(Cl)c1)N(Cc1ccc(-c2cccc(C#N)c2)cc1)C(=O)CCN1CC[C@H](O)C1` (stereo partly drawn) [Example 26], for which the Ki was 56 nM.
For the compound `N#Cc1cccc(-c2ccc(CN(CC(=O)Nc3cc(Cl)cc(Cl)c3)C(=O)CN3CC[C@@H](O)C3)cc2)c1` [Example 27], the Ki was 61 nM.
In the case of `CN1CCN(CC(=O)N(CCc2ccc(-c3cccc(C#N)c3)cc2)CC(=O)Nc2cc(Cl)cc(Cl)c2)CC1` [Example 28], the Ki stood at 63 nM.
Consider `N#Cc1cccc(-c2ccc(CN(CC(=O)Nc3ccc(F)c(C(F)(F)F)c3)C(=O)CN3CCCC3)cc2)c1` [Example 29], for which the Ki was 72 nM.
As to `CC(C(=O)Nc1cc(Cl)cc(Cl)c1)N(Cc1ccc(-c2cccc(C#N)c2)cc1)C(=O)CCN1CCCC1` (stereo not drawn) [Example 30], the Ki was found to be 73 nM.
For the compound `CC(=O)N[C@@H]1CCN(CC(=O)N(CCc2ccc(-c3cccc(C#N)c3)cc2)CC(=O)Nc2cc(Cl)cc(Cl)c2)C1` [Example 31], the Ki was 82 nM.
In the case of `CN(C)CC(=O)N(CCc1ccc(-c2cccc(C#N)c2)cc1)CC(=O)Nc1cc(Cl)cc(Cl)c1` [Example 32], the Ki amounted to 90 nM.
`CC(C(=O)Nc1cc(Cl)cc(Cl)c1)N(CCc1ccc(-c2cccc(C#N)c2)cc1)C(=O)CN1CC[C@H](O)C1` (stereo partly drawn) [Example 36]: the Ki worked out at 8 nM.
For the compound `CC(C(=O)Nc1cc(Cl)cc(Cl)c1)N(CCc1ccc(-c2cccc(C#N)c2)cc1)C(=O)CN1CCCCC1` (stereo not drawn) [Example 37], the Ki was found to be 9 nM.

The test is the same for the next values; noted with them: Table 2; membranes from CHO cells expressing the MCH receptor, [125I]-MCH, SPA; read-out: Ki (MCH).
As for `CC(c1ccc(-c2cccc(C#N)c2)cc1)N(CC(=O)Nc1cc(Cl)cc(Cl)c1)C(=O)CCN1CC[C@@H](O)C1` (stereo partly drawn) [Example 41], the Ki stood at 12 nM.
As to `CC(c1ccc(-c2cccc(C#N)c2)cc1)N(CC(=O)Nc1cc(Cl)cc(Cl)c1)C(=O)CN1CC[C@H](O)C1` (stereo partly drawn) [Example 42], the Ki was found to be 16 nM.
Turning to `C[C@@H](c1ccc(-c2cccc(C#N)c2)cc1)N(CC(=O)Nc1cc(Cl)cc(Cl)c1)C(=O)CCN1CC[C@@H](O)C1` [Example 43], the Ki turned out to be 18 nM.
Still for that read-out and setting: for `C[C@@H](c1ccc(-c2cccc(C#N)c2)cc1)N(CC(=O)Nc1cc(Cl)cc(Cl)c1)C(=O)CCN1CCCCC1` [Example 44] the value was 18 nM; for `CCCNCCC(=O)N(CC(=O)Nc1cc(Cl)cc(Cl)c1)[C@@H](C)c1ccc(-c2cccc(C#N)c2)cc1` [Example 45], 22 nM; for `C[C@@H](c1ccc(-c2cccc(C#N)c2)cc1)N(CC(=O)Nc1cc(Cl)cc(Cl)c1)C(=O)CCNCC1CC1` [Example 46], 22 nM.
Take `C[C@H](c1ccc(-c2cccc(C#N)c2)cc1)N(CC(=O)Nc1cc(Cl)cc(Cl)c1)C(=O)CCN1CC[C@@H](O)C1` [Example 47]: the Ki amounted to 23 nM.
Turning to `C[C@@H](c1ccc(-c2cccc(C#N)c2)cc1)N(CC(=O)Nc1cc(Cl)cc(Cl)c1)C(=O)CCNC1CCC1` [Example 48], the Ki turned out to be 28 nM.
Regarding `C[C@H](c1ccc(-c2cccc(C#N)c2)cc1)N(CC(=O)Nc1cc(Cl)cc(Cl)c1)C(=O)CN1CC[C@@H](O)C1` [Example 49], the inhibition constant (Ki) was determined as 31 nM.
With `CC(C)CNCCC(=O)N(CC(=O)Nc1cc(Cl)cc(Cl)c1)[C@@H](C)c1ccc(-c2cccc(C#N)c2)cc1` [Example 50], the Ki turned out to be 34 nM.
Regarding `C[C@@H](c1ccc(-c2cccc(C#N)c2)cc1)N(CC(=O)Nc1cc(Cl)cc(Cl)c1)C(=O)CCN(C)C` [Example 51], the Ki was 45 nM.
On the same count and under the same terms, the same measure for `C[C@@H](c1ccc(-c2cccc(C#N)c2)cc1)N(CC(=O)Nc1cc(Cl)cc(Cl)c1)C(=O)CCNC1CCCC1` [Example 52]: 67 nM; for `CNCCC(=O)N(CC(=O)Nc1cc(Cl)cc(Cl)c1)[C@@H](C)c1ccc(-c2cccc(C#N)c2)cc1` [Example 53]: 78 nM.

The same test, now with this note: printed unit nM; read-out: MCH Ki.
As for `N#Cc1cccc(-c2ccc(CC(=O)N(CCCN3CCCC3)CC(=O)Nc3cc(Cl)cc(Cl)c3)cc2)c1` [Example 61], the Ki came out at 62 nM.

Still in this test, the particulars now being: text of the example; printed unit nm; read-out: MCH Ki.
Regarding `N#Cc1cccc(-c2ccc(CN(CC(=O)Nc3cc(Cl)cc(Cl)c3)C(=O)CCN3CCCC3)cc2)c1` [Example 1], the Ki amounted to 21 nM.
`CC(c1ccc(-c2cccc(C#N)c2)cc1)N(CC(=O)Nc1cc(Cl)cc(Cl)c1)C(=O)CN1CCCC1` (stereo not drawn) [Example 40]: the Ki was found to be 21 nM.
